{
  "source": "patent US10259777B2",
  "about": "“(E)-3-(3,4-dihydroxyphenyl)-N-(prop-2-yn-1-yl)acrylamide for treatment of neurodegenerative diseases” (THE UNIVERSITY OF HONG KONG, priority 2015, dated 2019)",
  "key": {"[1]": {"test_system": "PC12 cells", "assay": "Mitochondrial membrane integrity against 6-OHDA, JC-1 probe", "assay_type": "cell-based, rat", "conditions": "6-OHDA with PACA 5, 10, 20 and 50 μM", "description": "PC12 cells were treated with 6-OHDA alone or in combination with PACA for 6 hours and subsequently stained with JC-1. The images were captured under a fluorescence microscope.\nTo investigate the neuroprotective mechanisms of PACA, PC12 cells were treated with 6-OHDA alone or in combination with PACA at the concentrations of 5, 10, 20 and 50 μM. At the end of treatment, the protection of PACA on the mitochondrial membrane integrity was examined by using a cell permeable fluorescent probe 5,5′,6,6′-tetrachloro-1,1′,3,3′-tetraethyl-benzimidazol-carbocyanine iodide (JC-1). 6-OHDA deadly disrupted the mitochondrial membrane integrity as indicated by the leakage of JC-1 into the cytosol."}, "[2]": {"test_system": "PC12 cells", "assay": "6-OHDA-induced superoxide production, DHE staining", "assay_type": "cell-based, rat", "conditions": "6-OHDA with PACA 5, 10, 20 and 50 μM", "description": "After the treatment with 6-OHDA alone or in combination with PACA at different concentrations, PC12 cells were stained with a fluorescent probe dihydroethidium (DHE) for the production of superoxide anion (A & B) and another fluorescent probe DAF-FM Diacetate for the production of nitric oxide ([…]), respectively. (A) Representative images of DHE-stained cells. 6-OHDA, 200 μM; PACA, 50 (B) PACA inhibited 6-OHDA-induced formation of superoxide ions. PC12 cells were treated with 6-OHDA alone or in combination with PACA for 6 h and subsequently stained with a probe DHE. The images were captured under a fluorescence microscope. The fluorescence was determined by ImageJ software. (C) Representative images of DAF-FM DA-stained cells. 6-OHDA, 200 μM; PACA, 50 μM. (D) PACA inhibited 6-OHDA-induced NO production. PC12 cells were treated with 6-OHDA alone or in combination with PACA for 6 h and subsequently stained with a probe DAF-FM DA. The images were captured under a fluorescence microscope. The fluorescence was determined by ImageJ software.\nPC12 cells were treated with 6-OHDA alone or in combination with PACA at the concentrations of 5, 10, 20 and 50 μM. At the end of treatment, PC12 cells were then stained with a fluorescent probe dihydroethidium (DHE) for the production of superoxide anion and another fluorescent probe DAF-FM Diacetate for the production of nitric oxide, respectively."}, "[3]": {"biological_target": "T1, Keap1 (Rattus norvegicus, UniProt P57790)", "T1 construct": "endogenous in cells; host or cells: PC12 (rat pheochromocytoma) cells", "T1 sequence (P57790 whole entry)": "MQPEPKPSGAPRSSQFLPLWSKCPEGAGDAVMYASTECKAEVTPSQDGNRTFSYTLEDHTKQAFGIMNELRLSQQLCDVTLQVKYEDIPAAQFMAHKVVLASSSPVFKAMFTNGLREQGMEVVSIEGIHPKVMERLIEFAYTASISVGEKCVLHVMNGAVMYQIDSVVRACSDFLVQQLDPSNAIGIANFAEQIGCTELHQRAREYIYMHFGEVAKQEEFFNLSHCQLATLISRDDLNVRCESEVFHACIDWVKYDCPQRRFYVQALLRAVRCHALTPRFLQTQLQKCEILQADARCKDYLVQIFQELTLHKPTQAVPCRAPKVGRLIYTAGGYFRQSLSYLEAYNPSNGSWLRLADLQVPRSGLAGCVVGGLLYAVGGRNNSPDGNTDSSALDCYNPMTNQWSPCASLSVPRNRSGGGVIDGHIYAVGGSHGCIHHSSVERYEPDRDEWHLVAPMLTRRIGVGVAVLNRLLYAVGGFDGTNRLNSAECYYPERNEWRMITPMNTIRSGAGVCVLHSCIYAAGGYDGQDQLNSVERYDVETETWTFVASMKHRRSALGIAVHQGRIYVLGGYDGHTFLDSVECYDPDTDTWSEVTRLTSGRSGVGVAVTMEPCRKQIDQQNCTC", "assay": "Identification of PACA-modified proteins by Click chemistry biotin tagging and affinity isolation", "assay_type": "cell-based", "conditions": "20 μM PACA, biotin tag by Click chemistry, Keap1 antibody pull-down", "description": "PACA directly modifies the proteins bearing free cysteine residues after oxidase-mediated oxidation into chemically reactive o-quinone. At the end of 24 hour incubation, a biotin tag was introduced to the proteins that were covalently modified by PACA. Following affinity isolation with anti-Keap1 antibody bead, streptavidin-horseradish peroxidase (HRP) detected Keap1 as the predominant PACA-modified protein with the apparent molecular size of ˜72 kDa. (A) Biotinylation of PACA-modified proteins by Click chemistry. Oxidase represents the enzymes that oxidize PACA to o-quinone, Protein-SH represents the protein bearing free cysteine residues. (B) Procedure for the isolation of PACA-modified proteins. (C) Western blotting analysis of PACA-modified proteins. PC12 cells were treated with PACA (20 μM) for 6 h. […] All protein fractions were resolved by SDS-PAGE and detected by streptavidin-HRP conjugate. […]\nPACA is converted to the chemically reactive o-quinone intermediate by the intracellular oxidases after PACA got inside the cells. […] Following gel electrophoresis and Western blotting onto PVDF (polyvinylidene difluoride) membranes, HRP-streptavidin conjugate detected a predominant ˜70 kDa protein band (data not shown). Such protein band was also detected by keap1 antibody through a similar procedure. […] The blots were probed by HRP-conjugated streptavidin, and subsequently detected by chemiluminescence. […]"}, "[4]": {"test_system": "mouse model of Parkinson's disease", "assay": "MPTP-induced motor dysfunctions, rotarod and pole test", "assay_type": "in vivo, mice", "conditions": "PACA 15 mg/kg p.o. and MPTP 25 mg/kg i.p. daily for seven days, rotarod and pole test at day-8", "description": "FIG. 11. In vivo Effect of PACA on MPTP-induced motor dysfunctions in mice. (A) Study design. (B) Rotarod test. Mice were placed on horizontal drums (30 mm in diameter), rotating at a progressively increasing speed, from 4 to 32 rpm over a 5-min period. The time that each animal stayed on the rod before falling was measured. (C) Pole test. Mice were placed with facing head-up on the top of the 50 cm long metal rod (1 cm diameter). Total time for each animal to reach the base of the pole was recorded. Each mouse was tested for three times. The data were presented as Mean±SEM and analyzed by one-way ANOVA with post-hoc Dunnett test. *p<0.05; **, p<0.01.\nThe in vivo neuroprotective effect of PACA was evaluated in a mouse model of Parkinson's disease. Nineteen mice were randomly divided into three groups: control (n=5), receiving vehicle administrations; MPTP (n=7), receiving i.p. injection of MPTP (25 mg/kg) every afternoon for seven days; MPTP+PACA (n=7), receiving p.o administration of PACA (15 mg/kg) every morning and i.p. injection of MPTP (25 mg/kg) every afternoon for seven days. At day-8, the motor functions of mice were assessed by rotarod performance test and pole test."}},
  "data": [
    {"compound": "C#CCNC(=O)/C=C/c1ccc(O)c(O)c1", "note": "[PACA, (E)-3-(3,4-dihydroxyphenyl)-N-(prop-2-yn-1-yl)acrylamide]", "values": [
      {"measurement": "mitochondrial membrane integrity against 6-OHDA", "setting": "[1]", "result": "maintained the mitochondrial membrane integrity in a concentration-dependent manner"},
      {"measurement": "6-OHDA-induced formation of superoxide ions", "setting": "[2]", "result": "significantly attenuated"},
      {"measurement": "PACA-modified protein isolated from treated PC12 cells", "setting": "[3]", "result": "kelch-like ECH-associated protein 1 (Keap1) was isolated as the predominant protein"},
      {"measurement": "protection against MPTP-induced motor dysfunctions", "setting": "[4]", "result": "effectively protected animals against MPTP-induced motor dysfunctions"}
    ]}
  ]
}
